The text below walks through data of patent EP0359529B1, “Method for the control of pneumocystis carinii” (Merck & Co., Inc., priority 1988, dated 1990).

Numbered stars: 1 amine (or outer) side, 2 acyl side, 3 side chain; on linkers, the order of the positions; unused ones are H or OH. Bridge positions count the residues as written; N and C are the ends. Square brackets hold non-standard residues; d marks the D form. Peptide text beside a SMILES is read from it. * marks the point of attachment. ξ: configuration not given here. ξOrn(4R-OH,5R-OH) = O=C(C(C[C@@H](O)[C@@H](O)N[*:3])N[*:1])[*:2]; ξhTyr(3S-OH,4S-OH) = NC(C(=O)O)[C@H](O)[C@@H](O)c1ccc(O)cc1; ξOrn(4,5-diOH) = O=C(C(CC(O)C(O)N[*:3])N[*:1])[*:2]; ξhTyr(βξ-OH,γξ-OH) = NC(C(=O)O)C(O)C(O)c1ccc(O)cc1; Benzoyl(4-octyloxy) = CCCCCCCCOc1ccc(C(=O)*)cc1; X3 = C[C@H]1CN([*:1])C(C(=O)[*:2])[C@H]1O; ξPro(3ξ-OH,4ξ-Me) = CC1CNC(C(=O)O)C1O; X2 = NC(=O)CC(O)C(N[*:1])C(=O)[*:2]; ξPro(4R-OH) = O=C(O)C1C[C@@H](O)CN1; X1 = CCC(C)CC(C)CCCCCCCCC(=O)*; Hyp = O=C(O)[CH]1C[CH](O)CN1; ξT = CC(O)C(N)C(=O)O

The test system of assay [1] is P. carinii. The assay can be described thus: Similar immunosuppressed rat study, 7 day treatment, cysts per lung counted. Format: in vivo. Particulars: immunosuppressed rats; 2 mg/kg injected twice daily for 7 days; vehicle 10% DMSO. On the procedure: A similar rat study was conducted to determine the antipneumocystis activity of 1-[(4R,5R)-4,5-dihydroxy-N²-[4-(octyloxy)benzoyl]-L-ii ornithine]echinocandin B (Compound IBii). After 6 weeks of immunosuppression the rats were injected twice daily for 7 days with vehicle alone. Compound IBii (2 mg/kg) or Compound IA (2 mg/kg) during which time immunosuppression was continued. At the end of the treatment period the animals were sacrificed and the number of cysts per lung determined. Compound IA reduced the number of cysts by >99% while Compound IBii reduced the cyst counts by approximately 84% (compared to the vehicle control, 10% DMSO).

The test system of assay [2] is P. carinii. The assay can be described thus: Immunosuppressed rat study of P. carinii infection, two week treatment, lung cysts and parasite nuclei counted. Format: in vivo, Sprague-Dawley rats. Particulars: dexamethasone-immunosuppressed rats; two weeks treatment; Compound IA 2 mg i.p. twice daily; TMP-SMZ in drinking water (208 mg TMP and 1.040 g SMZ/liter); controls 3.2 x 10⁸ - 1.5 x 10⁹. The method, then: In a representative study employing Compound IA in rats, nine male Sprague-Dawley rats weighing approximately 200 grams each, were immunosupressed by the addition of dexamethasone to the drinking water (2.0 mg/liter) for six weeks to induce the development of P. carinii infections. To enhance the infection the rats were also maintained on a low protein diet. At the beginning of the seventh week the rats were divided into three groups of three rats each. All three groups continued to receive dexamethasone in the drinking water and low protein diet throughout the remainder of the study. The rats in Group I were kept as untreated infected controls, those in Group II were injected intraperitoneally twice daily for two weeks with 0.5 ml of sterile dH₂O containing 2 mg of Compound IA, and those in Group III were treated with trimethoprim-sulfamethoxazole (TMP-SMZ) in the drinking water (208 mg TMP and 1.040 g of SMZ/liter) for two weeks, a known treatment for P. carinii infections. Two rats died early in the experiment. One was from group II (rat 72A) and the other from group III (rat 75A). It was not determined whether they died from Pneumocystis pneumonia. At the end of the two week treatment period (a total of eight weeks of immonosuppression) the animals were sacrificed and the lung tissue removed. […]

As for `CCCCCCCCOc1ccc(C(=O)NC2C[C@@H](O)[C@@H](O)NC(=O)C3[C@@H](O)[C@@H](C)CN3C(=O)C(C(C)O)NC(=O)C([C@H](O)[C@@H](O)c3ccc(O)cc3)NC(=O)C3C[C@@H](O)CN3C(=O)C(C(C)O)NC2=O)cc1` (stereo partly drawn) [Compound IBii, 1-[(4R,5R)-4,5-dihydroxy-N²-[4-(octyloxy)benzoyl]-L-ornithine]echinocandin B] ({Benzoyl(4-octyloxy)}-[ξOrn(4R-OH,5R-OH)][ξT][ξPro(4R-OH)][ξhTyr(3S-OH,4S-OH)][ξT][X3]; lactam 1-C), the “reduction of the number of cysts per lung compared to the vehicle control” value in assay [1] is reported as “approximately 84%”. Turning to `CCC(C)CC(C)CCCCCCCCC(=O)NC1CC(O)C(O)NC(=O)C2C(O)C(C)CN2C(=O)C(C(O)CC(N)=O)NC(=O)C(C(O)C(O)c2ccc(O)cc2)NC(=O)C2CC(O)CN2C(=O)C(C(C)O)NC1=O` (stereo not drawn) [Compound IA] (X1-[ξOrn(4,5-diOH)]T[Hyp][ξhTyr(βξ-OH,γξ-OH)][X2][ξPro(3ξ-OH,4ξ-Me)]; lactam 1-C; configuration not given here), the “number of cysts in the lungs” value in assay [2] was “No cysts could be found”. Also, the “reduction of the number of cysts per lung compared to the vehicle control” value in assay [1] is more than 99%.
